From patent publication US20250332266A1, “COMPOUNDS FOR THE DEGRADATION OF EGFR KINASE” (BeiGene Switzerland GmbH, priority 2022, published 2025)

Tests used:
[1] = target: EGFR Del19/T790M/C797S (H1975-clone #28) (Homo sapiens, UniProt P00533, T790M/C797S, form not given); test: EGFR degradation, HTRF total-EGFR assay, H1975-clone #28 (DTC); format: cell-based; details: H1975-clone #28 Del19/T790M/C797S, 16 h treatment
In short: (§1)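 H1975 clones with endogenous EGFR knocked out and homozygous exogenous EGFR mutants (#28 Del19/T790M/C797S; #25 L858R/T790M/C797S) treated 16 h at 37 °C, 8 doses, 5-fold from 10 μM, 0.2% DMSO. Total EGFR measured by HTRF on lysates, normalised to DMSO controls; DC50 and Dmax from curve fit.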

[2] = target: T1, EGFR L858R/T790M/C797S (H1975-clone #25) (Homo sapiens, UniProt P00533, C797S/L858R/T790M); test: EGFR degradation, HTRF total-EGFR assay, H1975-clone #25 (LTC); format: cell-based; details: H1975-clone #25 L858R/T790M/C797S, 16 h treatment
T1 construct: expressed in transfected cells; host or cells: H1975 (clone #25), lentiviral transduction, endogenous EGFR knocked out
In short: as §1

Sequence of EGFR Del19/T790M/C797S (H1975-clone #28) (P00533 with tags, fused parts or gaps DEL746-750/T790M/C797S, form open): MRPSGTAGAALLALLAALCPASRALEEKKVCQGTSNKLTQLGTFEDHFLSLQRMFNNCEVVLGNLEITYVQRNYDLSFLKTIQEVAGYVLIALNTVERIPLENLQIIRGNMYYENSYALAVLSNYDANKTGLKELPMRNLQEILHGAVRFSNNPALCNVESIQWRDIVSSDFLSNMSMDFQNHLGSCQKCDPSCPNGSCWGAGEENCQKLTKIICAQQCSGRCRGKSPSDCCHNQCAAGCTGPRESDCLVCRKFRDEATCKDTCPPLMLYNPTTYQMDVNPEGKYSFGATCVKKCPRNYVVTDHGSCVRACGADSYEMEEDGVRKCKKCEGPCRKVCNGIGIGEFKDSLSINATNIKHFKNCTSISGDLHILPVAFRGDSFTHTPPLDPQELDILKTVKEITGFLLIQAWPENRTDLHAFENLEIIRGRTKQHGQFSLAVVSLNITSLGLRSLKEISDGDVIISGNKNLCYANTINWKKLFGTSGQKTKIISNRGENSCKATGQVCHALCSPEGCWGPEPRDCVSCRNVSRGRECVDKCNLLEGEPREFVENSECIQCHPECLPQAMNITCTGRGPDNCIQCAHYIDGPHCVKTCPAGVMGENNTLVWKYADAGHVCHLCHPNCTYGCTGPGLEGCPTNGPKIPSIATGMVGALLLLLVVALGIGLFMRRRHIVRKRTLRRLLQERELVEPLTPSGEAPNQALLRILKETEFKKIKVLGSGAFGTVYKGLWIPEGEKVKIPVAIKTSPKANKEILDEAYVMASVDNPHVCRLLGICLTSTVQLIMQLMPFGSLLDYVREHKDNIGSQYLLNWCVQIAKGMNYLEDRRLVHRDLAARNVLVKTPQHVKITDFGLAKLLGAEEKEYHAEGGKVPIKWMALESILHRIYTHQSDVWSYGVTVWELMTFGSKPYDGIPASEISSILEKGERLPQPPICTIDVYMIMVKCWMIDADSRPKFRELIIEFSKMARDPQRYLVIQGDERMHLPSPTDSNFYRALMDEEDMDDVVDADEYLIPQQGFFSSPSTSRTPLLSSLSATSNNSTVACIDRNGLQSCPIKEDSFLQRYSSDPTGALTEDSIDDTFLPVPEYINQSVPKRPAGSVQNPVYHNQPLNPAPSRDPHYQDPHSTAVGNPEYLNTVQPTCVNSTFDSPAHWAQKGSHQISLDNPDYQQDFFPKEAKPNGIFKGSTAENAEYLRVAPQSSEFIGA
T1 sequence (P00533 25-1210 T790M/C797S/L858R): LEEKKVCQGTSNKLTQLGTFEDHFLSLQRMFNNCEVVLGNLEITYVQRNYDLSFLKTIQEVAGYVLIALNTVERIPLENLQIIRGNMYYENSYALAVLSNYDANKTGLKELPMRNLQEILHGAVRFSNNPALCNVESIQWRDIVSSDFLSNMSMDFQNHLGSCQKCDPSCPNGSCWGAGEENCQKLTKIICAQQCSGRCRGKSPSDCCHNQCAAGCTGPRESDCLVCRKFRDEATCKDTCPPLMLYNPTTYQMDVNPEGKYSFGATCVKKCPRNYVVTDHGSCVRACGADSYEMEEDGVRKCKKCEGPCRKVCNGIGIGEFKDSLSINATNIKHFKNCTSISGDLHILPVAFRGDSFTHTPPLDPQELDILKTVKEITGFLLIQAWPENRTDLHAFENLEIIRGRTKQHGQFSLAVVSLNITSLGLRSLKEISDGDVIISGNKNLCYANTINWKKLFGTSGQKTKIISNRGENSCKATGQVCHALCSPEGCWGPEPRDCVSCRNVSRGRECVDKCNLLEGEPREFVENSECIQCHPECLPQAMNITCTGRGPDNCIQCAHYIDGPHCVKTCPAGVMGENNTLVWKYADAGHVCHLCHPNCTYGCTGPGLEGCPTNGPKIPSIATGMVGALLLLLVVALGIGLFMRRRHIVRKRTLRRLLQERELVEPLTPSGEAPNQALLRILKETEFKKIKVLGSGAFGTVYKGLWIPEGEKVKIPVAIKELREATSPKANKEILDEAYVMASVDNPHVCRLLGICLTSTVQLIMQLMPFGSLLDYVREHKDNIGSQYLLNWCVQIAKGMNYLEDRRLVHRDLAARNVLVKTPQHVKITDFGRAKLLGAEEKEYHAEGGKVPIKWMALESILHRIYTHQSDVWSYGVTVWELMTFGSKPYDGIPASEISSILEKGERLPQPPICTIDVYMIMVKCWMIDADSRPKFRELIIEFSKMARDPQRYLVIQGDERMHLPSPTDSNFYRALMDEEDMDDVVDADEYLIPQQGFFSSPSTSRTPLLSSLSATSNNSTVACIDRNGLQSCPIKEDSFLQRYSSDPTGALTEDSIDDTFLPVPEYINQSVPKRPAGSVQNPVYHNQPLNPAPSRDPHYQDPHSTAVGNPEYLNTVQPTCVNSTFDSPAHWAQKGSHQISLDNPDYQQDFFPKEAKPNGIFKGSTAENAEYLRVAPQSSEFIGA

Row | Degradation H1975 # 28 DTC [1] | Degradation H1975 # 25-LTC [2] | Structure (SMILES)
1 | 75.5 | 87.1 | Cc1cc2cc(n1)-c1cnn(C)c1OC[C@H]1C[C@@H](CN3/C(=N/C2=O)Nc2ccc(N4C[C@H]5C[C@@H]4CN5C4CCN(c5ccc(C6CCC(=O)NC6=O)nc5C)CC4)cc23)C1 (stereo partly drawn) [Example 43, 3-(5-(4-((1R,4R)-5-((7^1s,7^3S,E)-1^1,2^6-dimethyl-3-oxo-5^2,5^3-dihydro-1^1H,5^1H-9-oxa-4-aza-5(2,1)-benzo[d]imidazola-2(2,4)-pyridina-1(4,5)-pyrazola-7(1,3)-cyclobutanacyclononaphane-5^6-yl)-2,5-diazabicyclo[2.2.1]heptan-2-yl)piperidin-1-yl)-6-methylpyridin-2-yl)piperidine-2,6-dione]
2 | 81.0 | 90.4 | COC[C@@H]1CN(c2ccc3c(c2)N2C[C@H]4C[C@@H](COc5c(cnn5C)-c5cc(cc(C)n5)C(=O)/N=C/2N3)C4)CCN1C1CCN(c2ccc(C3CCC(=O)NC3=O)nc2C)CC1 (stereo partly shown) [Example 109]
3 | 90.9 | 88.5 | Cc1cc2cc(n1)-c1cnn(C)c1OC[C@H]1C[C@@H](CN3/C(=N/C2=O)Nc2ccc(N4CCN(CCc5cc(F)c([C@H]6CCC(=O)NC6=O)c(F)c5)CC4=O)cc23)C1 [Example 9, (R)-3-(4-(2-(4-((7^1s,7^3s,E)-1^1,2^6-dimethyl-3-oxo-5^2,5^3-dihydro-1^1H,5^1H-9-oxa-4-aza-5(2,1)-benzo[d]imidazola-2(2,4)-pyridina-1(4,5)-pyrazola-7(1,3)-cyclobutanacyclononaphane-5^6-yl)-3-oxopiperazin-1-yl)ethyl)-2,6-difluorophenyl)piperidine-2,6-dione]
4 | 82.4 | 83.1 | COC[C@@H]1CN(c2ccc3c(c2)N2C[C@H]4C[C@@H](COc5c(cnn5C)-c5cc(cc(C)n5)C(=O)/N=C/2N3)C4)CCN1C1CCN(c2cnc(C3CCC(=O)NC3=O)cc2C)CC1 (stereo partly drawn) [Example 120, 3-(5-(4-((S)-4-((7^1s,7^3R,E)-1^1,2^6-dimethyl-3-oxo-5^2,5^3-dihydro-1^1H,5^1H-9-oxa-4-aza-5(2,1)-benzo[d]imidazola-2(2,4)-pyridina-1(4,5)-pyrazola-7(1,3)-cyclobutanacyclononaphane-5^6-yl)-2-(methoxymethyl)piperazin-1-yl)piperidin-1-yl)-4-methylpyridin-2-yl)piperidine-2,6-dione]
5 | 90.9 | 88.4 | Cc1cc2cc(n1)-c1cnn(C)c1OC[C@H]1C[C@@H](CN3/C(=N/C2=O)Nc2ccc(N4CCN([C@@H]5CCN(c6cnc(C7CCC(=O)NC7=O)cc6C)C[C@H]5F)CC4)cc23)C1 (stereo partly drawn) [Example 138, 3-(5-((3R,4R)-4-(4-((7^1s,7^3S,E)-1^1,2^6-dimethyl-3-oxo-5^2,5^3-dihydro-1^1H,5^1H-9-oxa-4-aza-5(2,1)-benzo[d]imidazola-2(2,4)-pyridina-1(4,5)-pyrazola-7(1,3)-cyclobutanacyclononaphane-5^6-yl)piperazin-1-yl)-3-fluoropiperidin-1-yl)-4-methylpyridin-2-yl)piperidine-2,6-dione]
6 | 85.6 | 92.1 | Cc1cc2cc(n1)-c1cnn(C)c1OC[C@H]1C[C@@H](CN3/C(=N/C2=O)Nc2ccc(N4CCN([C@@H]5CCN(c6ccc(C7CCC(=O)NC7=O)nc6C)CC5(F)F)CC4)cc23)C1 (stereo partly drawn) [Example 123, 3-(5-((R)-4-(4-((7^1s,7^3S,E)-1^1,2^6-dimethyl-3-oxo-5^2,5^3-dihydro-1^1H,5^1H-9-oxa-4-aza-5(2,1)-benzo[d]imidazola-2(2,4)-pyridina-1(4,5)-pyrazola-7(1,3)-cyclobutanacyclononaphane-5^6-yl)piperazin-1-yl)-3,3-difluoropiperidin-1-yl)-6-methylpyridin-2-yl)piperidine-2,6-dione]
7 | 91.5 | 85.4 | Cc1cc2cc(n1)-c1cnn(C)c1OC[C@H]1C[C@@H](CN3/C(=N/C2=O)Nc2ccc(N4CCN(CC5CN(c6cc(F)c([C@H]7CCC(=O)NC7=O)c(F)c6)C5)CC4=O)cc23)C1 [Example 11, (R)-3-(4-(3-((4-((7^1s,7^3s,E)-1^1,2^6-dimethyl-3-oxo-5^2,5^3-dihydro-1^1H,5^1H-9-oxa-4-aza-5(2,1)-benzo[d]imidazola-2(2,4)-pyridina-1(4,5)-pyrazola-7(1,3)-cyclobutanacyclononaphane-5^6-yl)-3-oxopiperazin-1-yl)methyl)azetidin-1-yl)-2,6-difluorophenyl)piperidine-2,6-dione]
8 | 88.8 | 92.1 | Cc1cc2cc(n1)-c1cnn(C)c1OC[C@H]1C[C@@H](CN3/C(=N/C2=O)Nc2ccc(N4CCN([C@@H]5CCN(c6cnc(C7CCC(=O)NC7=O)cc6C)C[C@@H]5F)CC4)cc23)C1 (stereo partly drawn) [Example 133, 3-(5-((3S,4R)-4-(4-((7^1s,7^3S,E)-1^1,2^6-dimethyl-3-oxo-5^2,5^3-dihydro-1^1H,5^1H-9-oxa-4-aza-5(2,1)-benzo[d]imidazola-2(2,4)-pyridina-1(4,5)-pyrazola-7(1,3)-cyclobutanacyclononaphane-5^6-yl)piperazin-1-yl)-3-fluoropiperidin-1-yl)-4-methylpyridin 2-yl)piperidine-2,6-dione]
9 | 79.0 | 86.8 | Cc1cc2cc(n1)-c1cnn(C)c1OC[C@H]1C[C@@H](CN3/C(=N/C2=O)Nc2ccc(N(C)CC4CN(C5CCN(c6ccc(C7CCC(=O)NC7=O)nc6C)CC5)C4)cc23)C1 (stereo partly shown) [Example 114, 3-(5-(4-(3-((((7^1s,7^3s,E)-1^1,2^6-dimethyl-3-oxo-5^2,5^3-dihydro-1′H,5^1H-9-oxa-4-aza-5(2,1)-benzo[d]imidazola-2(2,4)-pyridina-1(4,5)-pyrazola-7(1,3)-cyclobutanacyclononaphane-5^6-yl)(methyl)amino)methyl)azetidin-1-yl)piperidin-1-yl)-6-methylpyridin-2-yl)piperidine-2,6-dione]
10 | 84.4 | 90.3 | Cc1cc2cc(n1)-c1cnn(C)c1OC[C@H]1C[C@@H](CN3/C(=N/C2=O)Nc2ccc(N4CCN(C5CCN(c6cc(F)c([C@H]7CCC(=O)NC7=O)c(F)c6)CC5)[C@H](CO)C4)cc23)C1 [Example 30, (R)-3-(4-(4-((S)-4-((7^1s,7^3R,E)-1^1,2^6-dimethyl-3-oxo-5^2,5^3-dihydro-1^1H,5^1H-9-oxa-4-aza-5(2,1)-benzo[d]imidazola-2(2,4)-pyridina-1(4,5)-pyrazola-7(1,3)-cyclobutanacyclononaphane-5^6-yl)-2-(hydroxymethyl)piperazin-1-yl)piperidin-1-yl)-2,6-difluorophenyl)piperidine-2,6-dione]
11 | 91.9 | 92.8 | Cc1cc2cc(n1)-c1cnn(C)c1OC[C@H]1C[C@@H](CN3/C(=N/C2=O)Nc2ccc(N4CCN(C5CCN(c6cnc(C7CCC(=O)NC7=O)cc6C)CC5)C[C@H]4C)cc23)C1 (stereo partly drawn) [Example 1, 3-(5-(4-((R)-4-((7^1s,7^3S,E)-1^1,2^6-dimethyl-3-oxo-5^2,5^3-dihydro-1^1H,5^1H-9-oxa-4-aza-5(2,1)-benzo[d]imidazola-2(2,4)-pyridina-1(4,5)-pyrazola-7(1,3)-cyclobutanacyclononaphane-5^6-yl)-3-methylpiperazin-1-yl)piperidin-1-yl)-4-methylpyridin-2-yl)piperidine-2,6-dione]
12 | 78.0 | 87.7 | Cc1cc2cc(n1)-c1cnn(C)c1OC[C@H]1C[C@@H](CN3/C(=N/C2=O)Nc2ccc(N4CCN(C5CCN(c6ccc(C7CCC(=O)NC7=O)nc6)CC5)C[C@@H]4C)cc23)C1 (stereo partly drawn) [Example 36, 3-(5-(4-((S)-4-((7^1s,7^3R,E)-1^1,2^6-dimethyl-3-oxo-5^2,5^3-dihydro-1^1H,5^1H-9-oxa-4-aza-5(2,1)-benzo[d]imidazola-2(2,4)-pyridina-1(4,5)-pyrazola-7(1,3)-cyclobutanacyclononaphane-5^6-yl)-3-methylpiperazin-1-yl)piperidin-1-yl)pyridin-2-yl)piperidine-2,6-dione]
13 | 84.1 | 90.9 | Cc1cc2cc(n1)-c1cnn(C)c1OC[C@H]1C[C@@H](CN3/C(=N/C2=O)Nc2ccc(N4CC[C@H](N5CCN(c6ccc(C7CCC(=O)NC7=O)nc6C)CC5)C(F)(F)C4)cc23)C1 (stereo partly drawn) [Example 122, 3-(5-(4-((S)-1-((7^1s,7^3R,E)-1^1,2^6-dimethyl-3-oxo-5^2,5^3-dihydro-1^1H,5^1H-9-oxa-4-aza-5(2,1)-benzo[d]imidazola-2(2,4)-pyridina-1(4,5)-pyrazola-7(1,3)-cyclobutanacyclononaphane-5^6-yl)-3,3-difluoropiperidin-4-yl)piperazin-1-yl)-6-methylpyridin-2-yl)piperidine-2,6-dione]
14 | 84.2 | 90.5 | Cc1cc2cc(n1)-c1cnn(C)c1OC[C@H]1C[C@@H](CN3/C(=N/C2=O)Nc2ccc(N4CCN(C5CCN(c6cc(F)c([C@H]7CCC(=O)NC7=O)c(F)c6)CC5)[C@@H](CO)C4)cc23)C1 [Example 31, (R)-3-(4-(4-((R)-4-((7^1s,7^3S,E)-1^1,2^6-dimethyl-3-oxo-5^2,5^3-dihydro-1^1H,5^1H-9-oxa-4-aza-5(2,1)-benzo[d]imidazola-2(2,4)-pyridina-1(4,5)-pyrazola-7(1,3)-cyclobutanacyclononaphane-5^6-yl)-2-(hydroxymethyl)piperazin-1-yl)piperidin-1-yl)-2,6-difluorophenyl)piperidine-2,6-dione]
